{"source": "BindingDB's records for doi:10.1111/cbdd.12575", "about": "(Universidade De Lisboa, 2015)", "biological_target": "T1, Nitric oxide synthase, inducible (Mus musculus, UniProt P29477)", "T1 sequence (P29477 whole entry)": "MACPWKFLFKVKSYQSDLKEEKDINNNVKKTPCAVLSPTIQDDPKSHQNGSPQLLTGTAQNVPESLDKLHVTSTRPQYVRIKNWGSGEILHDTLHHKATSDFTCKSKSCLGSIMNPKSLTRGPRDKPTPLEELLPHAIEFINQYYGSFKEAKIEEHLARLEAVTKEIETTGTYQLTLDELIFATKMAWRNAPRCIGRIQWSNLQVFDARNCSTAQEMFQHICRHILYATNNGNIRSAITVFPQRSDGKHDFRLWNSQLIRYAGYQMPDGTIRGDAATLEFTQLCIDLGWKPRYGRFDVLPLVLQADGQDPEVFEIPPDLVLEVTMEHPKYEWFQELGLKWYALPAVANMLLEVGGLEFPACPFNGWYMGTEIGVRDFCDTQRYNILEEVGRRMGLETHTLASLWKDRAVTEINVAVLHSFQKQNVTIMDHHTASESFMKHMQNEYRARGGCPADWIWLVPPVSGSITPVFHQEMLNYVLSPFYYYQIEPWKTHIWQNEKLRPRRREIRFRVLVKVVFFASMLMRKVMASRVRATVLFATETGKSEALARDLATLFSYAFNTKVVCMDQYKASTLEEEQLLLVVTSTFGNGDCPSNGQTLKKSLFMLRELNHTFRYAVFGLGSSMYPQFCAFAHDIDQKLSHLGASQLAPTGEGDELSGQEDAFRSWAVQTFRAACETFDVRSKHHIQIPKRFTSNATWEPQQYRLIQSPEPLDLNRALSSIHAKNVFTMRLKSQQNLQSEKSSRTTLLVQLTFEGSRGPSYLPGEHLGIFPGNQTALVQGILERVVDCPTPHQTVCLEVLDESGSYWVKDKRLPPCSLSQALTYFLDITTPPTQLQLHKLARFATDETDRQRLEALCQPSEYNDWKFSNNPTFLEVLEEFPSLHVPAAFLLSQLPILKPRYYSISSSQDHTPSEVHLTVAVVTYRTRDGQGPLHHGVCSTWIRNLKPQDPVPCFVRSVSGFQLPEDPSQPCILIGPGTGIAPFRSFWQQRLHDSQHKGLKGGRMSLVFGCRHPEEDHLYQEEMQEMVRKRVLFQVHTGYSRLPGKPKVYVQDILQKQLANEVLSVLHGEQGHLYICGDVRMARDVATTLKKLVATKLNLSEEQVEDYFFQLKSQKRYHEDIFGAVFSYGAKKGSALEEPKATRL", "assay": "iNOS Activity Assay", "procedure": "The iNOS activity assay was based on the method of hemoglobin assay previously described with slight modifications. The activity of the enzyme was determined spectrophotometrically by monitoring the NO-mediated conversion of oxyhemoglobin to methemoglobin at 401 and 421 nm.", "data": [{"smiles": "N=C(NCCCC12C[NH][Re]([CH]=O)([CH]=O)([CH]=O)([NH]1)[O]C2=O)N[N+](=O)[O-]", "note": "(stereo not given) [1,1,1-triformyl-4-(3-{[iminiumyl(nitroamino)methyl]amino}propyl)-3-oxo-2-oxa-6,7-diaza-1-rhenabicyclo[2.2.1]heptane-6,7-diium (Re4)]", "values": [{"measurement": "Ki", "result": 241, "unit": "µM"}]}, {"smiles": "N=C(NCCCC(N)(CN)C(=O)O)N[N+](=O)[O-]", "note": "(stereo not given) [2-Amino-2-(aminomethyl)-5-(3-nitroguanidino)pentanoic acid (L4)]", "values": [{"measurement": "Ki", "result": 29.4, "unit": "µM"}]}, {"smiles": "NCC(N)(CCCC(=O)NC(CCCNC(N)=N[N+](=O)[O-])C(=O)O)C(=O)O", "note": "(stereo not given) [2-Amino-2-(aminomethyl)-6-(1-carboxy-4-(2-nitroguanidino)butylamino)-6-oxohexanoic acid (L5)]", "values": [{"measurement": "Ki", "result": 6.2, "unit": "µM"}]}, {"smiles": "NCC(N)(CCCCCCC(=O)NC(CCCNC(N)=N[N+](=O)[O-])C(=O)O)C(=O)O", "note": "(stereo not given) [2-Amino-2-(aminomethyl)-9-(1-carboxy-4-(2-nitroguanidino)butylamino)-9-oxononanoic acid (L6)]", "values": [{"measurement": "Ki", "result": 760, "unit": "µM"}]}, {"smiles": "N=C(NCCCC(NC(=O)CCCC12C[NH][Re]([CH]=O)([CH]=O)([CH]=O)([NH]1)[O]C2=O)C(=O)O)N[N+](=O)[O-]", "note": "(stereo not given) [4-{3-[(1-carboxylato-4-{[iminiumyl(nitroamino)methyl]amino}butyl)carbamoyl]propyl}-1,1,1-triformyl-3-oxo-2-oxa-6,7-diaza-1-rhenabicyclo[2.2.1]heptane-6,7-diium (Re5)]", "values": [{"measurement": "Ki", "result": 57.2, "unit": "µM"}]}]}
